Positions of bridges follow the written chain, without caps; N, C: chain ends. Non-standard residues stand in square brackets, D forms with d. Residues, ends and D or L forms follow the SMILES beside them. NMePhe(4-NO2) = CN[C@@H](Cc1ccc([N+](=O)[O-])cc1)C(=O)O; Phe(4-NO2) = N[C@@H](Cc1ccc([N+](=O)[O-])cc1)C(=O)O; 2Nal = N[C@@H](Cc1ccc2ccccc2c1)C(=O)O; d2Nal = N[C@H](Cc1ccc2ccccc2c1)C(=O)O; Abu = CC[C@H](N)C(=O)O
Assays:
[1] = molecular target: T1, rat somatostatin receptor subtype 2 (SSTR2) (Rattus norvegicus, UniProt P30680); experiment: Yeast assay, somatostatin agonist activity (growth zone of modified yeast cells on histidine-free agar); format: cell-based; details: rating on a scale of 1-5 from zone of growing cells; S. Cerevisiae LY364
T1 construct: expressed in transfected cells; host or cells: Saccharomyces cerevisiae LY364
T1 sequence (P30680 whole entry): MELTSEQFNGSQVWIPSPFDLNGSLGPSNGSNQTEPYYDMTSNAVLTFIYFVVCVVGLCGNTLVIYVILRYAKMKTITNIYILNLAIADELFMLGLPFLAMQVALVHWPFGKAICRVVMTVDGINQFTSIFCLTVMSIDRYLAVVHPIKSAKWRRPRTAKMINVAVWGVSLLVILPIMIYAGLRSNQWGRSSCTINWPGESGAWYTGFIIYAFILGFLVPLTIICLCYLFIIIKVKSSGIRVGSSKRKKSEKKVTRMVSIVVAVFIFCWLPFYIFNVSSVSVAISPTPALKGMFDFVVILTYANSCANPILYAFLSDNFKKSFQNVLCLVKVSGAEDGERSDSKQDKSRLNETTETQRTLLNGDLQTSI
Description: In this evaluation, yeast cells which have been specifically modified to functionally express rat somatostatin receptor subtype 2 (SSTR2) on their cell surfaces are used. S. Cerevisiae LY364 cells are plated in a standard synthetic agar medium which lacks histidine. In the absence of a somatostatin receptor agonist, the auxotrophic (his3) cells are unable to grow. In the presence of somatostatin, or a somatostatin agonist, the expression of an enzyme (His3p: imidazole-glycerol phosphate dehydratase) which is essential for histidine biosynthesis is induced. The cells become competent to produce histidine, resulting in a zone of growing cells around the applied test compound. The zone is measured and the test compound is given an agonist rating on a scale of 1-5 wherein 1 is minimum agonist activity and 5 is maximum agonist activity.
SCD-ura-trp: • 1) To 500 mL water add: • 1.7 g YNB without amino acids and (NH4)2SO4 • 5.0 g (NH4)2SO4 • 0.7 g CSM-ura-trp • 2) To additional 500 mL water add: 20 g Dextrose • 3) Autoclave separately. Mix.
SCL-ura-trp: • 1) To 500 mL water add: • 1.7 g YNB without amino acids and (NH4)2SO4 • 5.0 g (NH4)2SO4 • 0.7 g CSM-ura-trp • 2) To additional 500 mL water add: 30 mL Lactic Acid • 3) Autoclave separately. Mix.
SCG-ura-trp: • 1) To 500 mL water add: • 1.7 g YNB without amino acids and (NH4)2SO4 • 5.0 g (NH4)2SO4 • 0.7 g CSM-ura-trp • 2) To additional 500 mL water add: 30 g D-Galactose • 3) Autoclave separately. Mix.
SCG-ura-trp-his agar medium, pH 6.8: • 1) To 500 mL water add: • 1.7 g YNB without amino acids and (NH4)2SO4 • 5.0 g (NH4)2SO4 • 0.7 g CSM-ura-trp-his • Stirring Bar • 2) Adjust pH to 6.8-6.9 by dropwise addition of conc. NH4OH • 3) To additional 500 mL water add: 30 g D-Galactose, 20 g Agar • 4) Autoclave separately. • 5) Stir to mix thoroughly. • 6) Equilibrate temperature to 55°C. YNB without amino acids and (NH4)2SO4, CSM-ura-trp, and CSM-ura-trp-his are manufactured by Bio101. Ammonium sulfate ((NH4)2SO4), Dextrose (D-glucose), D-Galactose, and Lactic Acid are manufactured by Sigma.
(§1) • 1) Inoculate 2 mL SCD-ura-trp liquid medium in Falcon 2051 tube with a single colony taken from a plate containing LY364 (MATa ura3-52 leu2 his3 trp1 lys2 ade2 far1:: LYS2 fus1:: FUS1-HIS3 gpal::hisG sst2::ADE2 bearing the SSTR2 expression plasmid, pJH2, and the G protein expression plasmid, pLP82)cells. • 2) Incubate overnight in a roller drum at 30°C.
(§2) Day 2. • 1) Harvest the cells by centrifugation (3 krpm, 5 min, room temp). • 2) Re-suspend with 5 mL of sterile water. • 3) Harvest again by centrifugation. • 4) Re-suspend in 5 mL SCL-ura-trp liquid medium. • 5) Incubate for 6 hours in a roller drum at 30°C. • 6) Harvest the cells again by centrifugation. • 7) Re-suspend in 5 mL SCG-ura-trp liquid medium. • 8) Incubate overnight in a roller drum at 30°C.
(§3) Day 3. • 1) Autoclave SCG-ura-trp-his pH 6.8 agar medium. • 2) Cool to 55°C in water bath. • 3) Add 1 mL of LY364 culture to 1 liter of agar medium. • 4) Stir vigorously for 1 min. • 5) Pour 150 mL each into five 500 cm^2 plates. • 6) Allow to cool on level surface. • 7) Apply test compound.
(§4) On day 3, add 5µL 1 mg/mL S-14 to each plate. Day 5. Begin checking plates for growth around applied compounds. Day 7. Growth in response to somatostatin should be readily observable. Rate extent of growth or inhibition of growth according to rating scale described hereinabove.

[2] = molecular target: T1, rat somatostatin receptor subtype 2 (SSTR2); experiment: Yeast assay, somatostatin antagonist activity (zone of no growth in presence of S-14); format: cell-based; design: key: 1 is minimum antagonist activity; 5 is maximum antagonist activity; -: When no activity is observed, the result is indicated by a dash; details: rating on a scale of 1-5 from zone of no growth; 5µL of 1 mg/mL S-14 added to each plate; S. Cerevisiae LY364
Description: To evaluate the somatostatin antagonist activity of a test compound, the above procedure is followed except on day 3, 5µL of 1 mg/mL of somatostatin, S-14, is added to each plate, before applying the test compound. If the test compound is an antagonist of somatostatin, then a zone of no growth will appear within the cell growth zone. This zone of no growth is measured and the test compound is given an antagonist rating on a scale of 1-5 wherein 1 is minimum antagonist activity and 5 is maximum antagonist activity.
The results are shown in Table I. When no activity is observed, the result is indicated by a dash.
as §1, §2, §3, §4

Compound | Yeast Assay Agonist [1] | Yeast Assay Antagonist [2]
C[C@@H](O)[C@@H]1NC(=O)[C@H](CCCCN)NC(=O)[C@@H](Cc2c[nH]c3ccccc23)NC(=O)[C@H](Cc2ccc(O)cc2)NC(=O)[C@H](NC(=O)[C@@H](N)Cc2ccc([N+](=O)[O-])cc2)CSSC[C@@H](C(=O)N[C@H](Cc2ccc(O)cc2)C(N)=O)NC1=O | - | 4
C[C@@H](O)[C@@H]1NC(=O)[C@H](CCCCN)NC(=O)[C@@H](Cc2c[nH]c3ccccc23)NC(=O)[C@H](Cc2ccc(O)cc2)NC(=O)[C@H](NC(=O)[C@@H](N)Cc2ccc([N+](=O)[O-])cc2)CSSC[C@@H](C(=O)N[C@@H](Cc2ccc(O)cc2)C(N)=O)NC1=O | - | 5
CC(=O)N[C@@H](Cc1ccc([N+](=O)[O-])cc1)C(=O)N[C@@H]1CSSC[C@@H](C(=O)N[C@H](Cc2ccc(O)cc2)C(N)=O)NC(=O)[C@H]([C@@H](C)O)NC(=O)[C@H](CCCCN)NC(=O)[C@@H](Cc2c[nH]c3ccccc23)NC(=O)[C@H](Cc2ccc(O)cc2)NC1=O | - | 4
CC(=O)N[C@@H](Cc1ccc2ccccc2c1)C(=O)N[C@@H]1CSSC[C@@H](C(=O)N[C@@H](Cc2ccc(O)cc2)C(N)=O)NC(=O)[C@H]([C@@H](C)O)NC(=O)[C@H](CCCCN)NC(=O)[C@@H](Cc2c[nH]c3ccccc23)NC(=O)[C@H](Cc2ccc(O)cc2)NC1=O (Ac-[2Nal][dC]Y[dW]KTCY-NH2; disulfide 2-7 (inferred)) | - | 1
CC(C)[C@@H]1NC(=O)[C@H](CCCCN)NC(=O)[C@@H](Cc2c[nH]c3ccccc23)NC(=O)[C@H](Cc2ccc(O)cc2)NC(=O)[C@H](NC(=O)[C@@H](N)Cc2ccc3ccccc3c2)CSSC[C@@H](C(=O)N[C@@H](Cc2ccc(O)cc2)C(N)=O)NC1=O (H-[2Nal][dC]Y[dW]KVCY-NH2; disulfide 2-7; N-terminus assumed) | - | 3
CC(C)[C@@H]1NC(=O)[C@H](CCCCN)NC(=O)[C@@H](Cc2c[nH]c3ccccc23)NC(=O)[C@H](Cc2ccc(O)cc2)NC(=O)[C@H](NC(=O)[C@@H](N)Cc2ccc([N+](=O)[O-])cc2)CSSC[C@@H](C(=O)N[C@@H](Cc2ccc3ccccc3c2)C(N)=O)NC1=O (H-[Phe(4-NO2)][dC]Y[dW]KVC[2Nal]-NH2; disulfide 2-7 (inferred)) | - | 2
CC(C)[C@@H]1NC(=O)[C@H](CCCCN)NC(=O)[C@@H](Cc2c[nH]c3ccccc23)NC(=O)[C@H](Cc2ccc(O)cc2)NC(=O)[C@H](NC(=O)[C@H](N)Cc2ccc3ccccc3c2)CSSC[C@@H](C(=O)N[C@@H](Cc2ccc(O)cc2)C(N)=O)NC1=O (H-[d2Nal][dC]Y[dW]KVCY-NH2; disulfide 2-7) | - | 2

Second part, the compound after the results:

Yeast Assay Agonist [1] | Yeast Assay Antagonist [2] | Compound
- | 5 | CN[C@@H](Cc1ccc([N+](=O)[O-])cc1)C(=O)N[C@@H]1CSSC[C@@H](C(=O)N[C@@H](Cc2ccc(O)cc2)C(N)=O)NC(=O)[C@H](C(C)C)NC(=O)[C@H](CCCCN)NC(=O)[C@@H](Cc2c[nH]c3ccccc23)NC(=O)[C@H](Cc2ccc(O)cc2)NC1=O (H-[NMePhe(4-NO2)][dC]Y[dW]KVCY-NH2; disulfide 2-7 (inferred))
- | 5 | CC(C)[C@@H]1NC(=O)[C@H](CCCCN)NC(=O)[C@@H](Cc2c[nH]c3ccccc23)NC(=O)[C@H](Cc2ccc(O)cc2)NC(=O)[C@H](NC(=O)[C@@H](N)Cc2ccc([N+](=O)[O-])cc2)CSSC[C@@H](C(=O)N[C@@H](Cc2ccc(O)cc2)C(N)=O)NC1=O (H-[Phe(4-NO2)][dC]Y[dW]KVCY-NH2; disulfide 2-7 (inferred))
- | 3 | CC[C@@H]1NC(=O)[C@H](CCCCN)NC(=O)[C@@H](Cc2c[nH]c3ccccc23)NC(=O)[C@H](Cc2ccc(O)cc2)NC(=O)[C@H](NC(=O)[C@@H](N)Cc2ccc([N+](=O)[O-])cc2)CSSC[C@@H](C(=O)N[C@@H](Cc2ccc(O)cc2)C(N)=O)NC1=O (H-[Phe(4-NO2)][dC]Y[dW]K[Abu]CY-NH2; disulfide 2-7 (inferred))

— EP0791603A2, “Pure somatostatin antagonist and methods of use thereof” (American Cyanamid Company, priority 1996, dated 1997)
